A word on the MIC: it is the lowest concentration found to suppress growth. A lower MIC goes with a more susceptible organism.

Values after ≈ are worked out from the molar mass of the structure shown.

What all share (assay): Bacterial growth minimal inhibitory concentration (microdilution, CLSI M7-A7)
Common to all, as to format: cell-based
(Dilution methods test growth across graded concentrations, often in twofold steps.)

Test [1] has as its system Acinetobacter baumannii T6474. As to conditions: multiply-resistant strain (in particular quinolone-resistant), cation-adjusted Mueller-Hinton Broth; for MIC: Acinetobacter baumannii, T6474. On the procedure: (§1) Minimal Inhibitory Concentrations (MICs; mg/L) were determined in cation-adjusted Mueller-Hinton Broth by a microdilution method following the description given in “Methods for Dilution Antimicrobial Susceptibility Tests for Bacteria that Grow Aerobically”, Approved standard, 7th ed., Clinical and Laboratory Standards Institute (CLSI) Document M7-A7, Wayne, Pa., USA (2006).
(§2) All Example compounds were tested against several Gram-positive and Gram-negative bacteria. […] K. pneumoniae A-651 and Acinetobacter baumannii T6474 are multiply-resistant strains (in particular quinolone-resistant), while E. coli ATCC25922 and P. aeruginosa ATCC27853 are quinolone-sensitive strains.

A further test concerns E. coli ATCC25922. Conditions: quinolone-sensitive strain, cation-adjusted Mueller-Hinton Broth; for MIC: Escherichia coli, ATCC25922. On the procedure:
as §1, §2

Another test relates to K. pneumoniae A-651. As to conditions: multiply-resistant strain (in particular quinolone-resistant), cation-adjusted Mueller-Hinton Broth; for MIC: Klebsiella pneumoniae, A651. How it is done:
as §1, §2

The next test has as its system P. aeruginosa ATCC27853. As to conditions: quinolone-sensitive strain, cation-adjusted Mueller-Hinton Broth; for MIC: Pseudomonas aeruginosa, ATCC27853. On the procedure:
as §1, §2

As for `C[C@@](CCn1ccc2cc(C#Cc3ccc([C@H]4C[C@@H]4CO)cc3)ccc21)(C(=O)NO)S(C)(=O)=O` [Example 33, (R)—N-hydroxy-4-(5-((4-((1S,2S)-2-(hydroxymethyl)cyclopropyl)phenyl)ethynyl)-1H-indol-1-yl)-2-methyl-2-(methylsulfonyl)butanamide], the MIC came to 0.125 µg/mL (≈ 0.26 µM) in test [1], 0.125 µg/mL (≈ 0.26 µM) with E. coli ATCC25922, 0.25 µg/mL (≈ 0.52 µM) in the test with K. pneumoniae A-651 and 2 µg/mL (≈ 4.16 µM) against P. aeruginosa ATCC27853.

For “(R)—N-hydroxy-4-(5-((3-hydroxythietan-3-yl)buta-1,3-diyn-1-yl)-1H-indol-1-yl)-2-methyl-2-(methylsulfonyl)butanamide [Example 32]”, the “MIC for A. Baumannii T6474” value in test [1] was found to be 16 µg/mL. Further, the “MIC for E. coli ATCC25922” value in the test on E. coli ATCC25922 stood at 0.125 µg/mL. Moreover, in the test on K. pneumoniae A-651, the “MIC for K. Pneumoniae A-651” value turned out to be 0.25 µg/mL. Besides, the “MIC for P. aeruginosa ATCC27853” value against P. aeruginosa ATCC27853 worked out at 2 µg/mL.

Regarding `C[C@@](CCn1ncc2c(F)c(C#CC#CC3(O)COC3)ccc21)(C(=O)NO)S(C)(=O)=O` [Example 38, (R)-4-(4-fluoro-5-((3-hydroxyoxetan-3-yl)buta-1,3-diyn-1-yl)-1H-indazol-1-yl)-N-hydroxy-2-methyl-2-(methylsulfonyl)butanamide], the MIC in test [1] turned out to be 32 µg/mL (≈ 71.2 µM); with E. coli ATCC25922 it was 0.5 µg/mL (≈ 1.11 µM); in the test with K. pneumoniae A-651, 1 µg/mL (≈ 2.22 µM); with P. aeruginosa ATCC27853, 1 µg/mL (≈ 2.22 µM).

As to `C[C@@](CCn1ncc2cc(C#CC#CC3(O)COC3)ccc21)(C(=O)NO)S(C)(=O)=O` [Example 5, (R)—N-hydroxy-4-(5-((3-hydroxyoxetan-3-yl)buta-1,3-diyn-1-yl)-1H-indazol-1-yl)-2-methyl-2-(methylsulfonyl)butanamide], the MIC is more than 32 µg/mL in test [1], 1 µg/mL (≈ 2.32 µM) in the test with E. coli ATCC25922, 1 µg/mL (≈ 2.32 µM) with K. pneumoniae A-651 and 2 µg/mL (≈ 4.64 µM) against P. aeruginosa ATCC27853.

On to `COc1ccc(-c2ccc3c(cnn3CC[C@](C)(C(=O)NO)S(C)(=O)=O)c2)c(F)c1` [Example 3, (R)-4-(5-(2-fluoro-4-methoxyphenyl)-1H-indazol-1-yl)-N-hydroxy-2-methyl-2-(methylsulfonyl)butanamide], for which the MIC in test [1] was determined as 1 µg/mL (≈ 2.3 µM); in the test on E. coli ATCC25922, 0.25 µg/mL (≈ 0.574 µM); in the test with K. pneumoniae A-651, 1 µg/mL (≈ 2.3 µM); against P. aeruginosa ATCC27853, 1 µg/mL (≈ 2.3 µM).

Regarding `C[C@H](O)c1ccc(C#Cc2ccc3c(ccn3CC[C@](C)(C(=O)NO)S(C)(=O)=O)c2)cc1` [Example 35, (R)—N-hydroxy-4-(5-((4-((S)-1-hydroxyethyl)phenyl)ethynyl)-1H-indol-1-yl)-2-methyl-2-(methylsulfonyl)butanamide], the MIC in test [1] was 0.25 µg/mL (≈ 0.55 µM); in the test on E. coli ATCC25922 it was not above 0.063 µg/mL; in the test on K. pneumoniae A-651 it was 0.25 µg/mL (≈ 0.55 µM); in the test with P. aeruginosa ATCC27853, 2 µg/mL (≈ 4.4 µM).

Take `C[C@@](CCn1ncc2cc(C#Cc3ccc(CO)cc3)ccc21)(C(=O)NO)S(C)(=O)=O` [Example 4, (R)—N-hydroxy-4-(5-((4-(hydroxymethyl)phenyl)ethynyl)-1H-indazol-1-yl)-2-methyl-2-(methylsulfonyl)butanamide]: the MIC was 0.125 µg/mL (≈ 0.283 µM) in test [1], 0.125 µg/mL (≈ 0.283 µM) in the test on E. coli ATCC25922, not above 0.063 µg/mL in the test on K. pneumoniae A-651 and 2 µg/mL (≈ 4.53 µM) against P. aeruginosa ATCC27853.

Take `C[C@@](CCn1ncc2cc(C#Cc3ccc([C@@H]4C[C@H]4CO)cc3)ccc21)(C(=O)NO)S(C)(=O)=O` [Example 20, (R)—N-hydroxy-4-(5-((4-((1R,2R)-2-(hydroxymethyl)cyclopropyl)phenyl)ethynyl)-1H-indazol-1-yl)-2-methyl-2-(methylsulfonyl)butanamide]: the MIC was not above 0.063 µg/mL in test [1], not above 0.063 µg/mL with E. coli ATCC25922, 0.25 µg/mL (≈ 0.519 µM) in the test with K. pneumoniae A-651 and 1 µg/mL (≈ 2.08 µM) in the test on P. aeruginosa ATCC27853.

Regarding `COc1ccc(-c2cc3ccn(CCC(C)(C(=O)NO)S(C)(=O)=O)c3cc2F)c(F)c1` (racemic) [RE11, (RS)-4-(6-fluoro-5-(2-fluoro-4-methoxyphenyl)-1H-indol-1-yl)-N-hydroxy-2-methyl-2-(methylsulfonyl)butanamide], the MIC in test [1] was determined as 4 µg/mL (≈ 8.84 µM); in the test with E. coli ATCC25922, 1 µg/mL (≈ 2.21 µM); against K. pneumoniae A-651, 2 µg/mL (≈ 4.42 µM); with P. aeruginosa ATCC27853, 8 µg/mL (≈ 17.7 µM).

Take `CC#CCOc1ccc2c(ccn2CCC(C)(C(=O)NO)S(C)(=O)=O)c1` (racemic) [RE1, (RS)-4-(5-(but-2-yn-1-yloxy)-1H-indol-1-yl)-N-hydroxy-2-methyl-2-(methylsulfonyl)butanamide]: the MIC in test [1] is 16 µg/mL (≈ 42.3 µM); against E. coli ATCC25922, 8 µg/mL (≈ 21.1 µM); with K. pneumoniae A-651, 16 µg/mL (≈ 42.3 µM); against P. aeruginosa ATCC27853 it was 16 µg/mL (≈ 42.3 µM).

Regarding `C[C@@](CCn1ncc2cc(C#CC#C[C@H]3C[C@@H]3CO)c(F)cc21)(C(=O)NO)S(C)(=O)=O` [Example 46, (R)-4-(6-fluoro-5-(((1S,2S)-2-(hydroxymethyl)cyclopropyl)buta-1,3-diyn-1-yl)-1H-indazol-1-yl)-N-hydroxy-2-methyl-2-(methylsulfonyl)butanamide], the MIC in test [1] was more than 32 µg/mL; against E. coli ATCC25922, not above 0.063 µg/mL; with K. pneumoniae A-651, 0.125 µg/mL (≈ 0.279 µM); against P. aeruginosa ATCC27853, 1 µg/mL (≈ 2.23 µM).

As for `CC(C)(O)c1ccc(C#Cc2ccc3c(cnn3CC[C@](C)(C(=O)NO)S(C)(=O)=O)c2)cc1` [Example 8, (R)—N-hydroxy-4-(5-((4-(2-hydroxypropan-2-yl)phenyl)ethynyl)-1H-indazol-1-yl)-2-methyl-2-(methylsulfonyl)butanamide], the MIC stood at 0.25 µg/mL (≈ 0.532 µM) in test [1], 0.125 µg/mL (≈ 0.266 µM) in the test on E. coli ATCC25922, 0.25 µg/mL (≈ 0.532 µM) against K. pneumoniae A-651 and 2 µg/mL (≈ 4.26 µM) with P. aeruginosa ATCC27853.

With `CC(C)(N)C#CC#Cc1ccc2c(cnn2CC[C@](C)(C(=O)NO)S(C)(=O)=O)c1` [Example 24, (R)-4-(5-(5-amino-5-methylhexa-1,3-diyn-1-yl)-1H-indazol-1-yl)-N-hydroxy-2-methyl-2-(methylsulfonyl)butanamide], the MIC in test [1] is more than 32 µg/mL; against E. coli ATCC25922 it was 1 µg/mL (≈ 2.4 µM); in the test on K. pneumoniae A-651, 4 µg/mL (≈ 9.6 µM); in the test on P. aeruginosa ATCC27853 it was 1 µg/mL (≈ 2.4 µM).

Regarding `C[C@@](CCn1ccc2cc(C#Cc3ccc([C@@H](O)CO)cc3)ccc21)(C(=O)NO)S(C)(=O)=O` [Example 44, (R)-4-(5-((4-((R)-1,2-dihydroxyethyl)phenyl)ethynyl)-1H-indol-1-yl)-N-hydroxy-2-methyl-2-(methylsulfonyl)butanamide], the MIC came to 8 µg/mL (≈ 17 µM) in test [1], 0.125 µg/mL (≈ 0.266 µM) in the test on E. coli ATCC25922, 0.25 µg/mL (≈ 0.531 µM) with K. pneumoniae A-651 and 2 µg/mL (≈ 4.25 µM) against P. aeruginosa ATCC27853.

Consider `C[C@@](CCn1ncc2cc(C#Cc3ccc(CCO)cc3)c(F)cc21)(C(=O)NO)S(C)(=O)=O` [Example 47, (R)-4-(6-fluoro-5-((4-(2-hydroxyethyl)phenyl)ethynyl)-1H-indazol-1-yl)-N-hydroxy-2-methyl-2-(methylsulfonyl)butanamide], for which the MIC in test [1] was 0.25 µg/mL (≈ 0.528 µM); with E. coli ATCC25922 it was not above 0.063 µg/mL; in the test on K. pneumoniae A-651, 0.25 µg/mL (≈ 0.528 µM); against P. aeruginosa ATCC27853, 2 µg/mL (≈ 4.22 µM).

Take `C[C@@](CCn1ccc2cc(C#CC#CC3(O)COC3)ccc21)(C(=O)NO)S(C)(=O)=O` [Example 11, (R)—N-hydroxy-4-(5-((3-hydroxyoxetan-3-yl)buta-1,3-diyn-1-yl)-1H-indol-1-yl)-2-methyl-2-(methylsulfonyl)butanamide]: the MIC in test [1] was determined as 16 µg/mL (≈ 37.2 µM); with E. coli ATCC25922, 0.5 µg/mL (≈ 1.16 µM); with K. pneumoniae A-651, 0.25 µg/mL (≈ 0.581 µM); with P. aeruginosa ATCC27853, 1 µg/mL (≈ 2.32 µM).

On to `C[C@@](CCn1ncc2cc(C#CC#C[C@H]3C[C@@H]3CO)ccc21)(C(=O)NO)S(C)(=O)=O` [Example 26, (R)—N-hydroxy-4-(5-(((1S,2S)-2-(hydroxymethyl)cyclopropyl)buta-1,3-diyn-1-yl)-1H-indazol-1-yl)-2-methyl-2-(methylsulfonyl)butanamide], for which the MIC in test [1] is 2 µg/mL (≈ 4.66 µM); against E. coli ATCC25922, not above 0.063 µg/mL; with K. pneumoniae A-651, 0.125 µg/mL (≈ 0.291 µM); against P. aeruginosa ATCC27853, 0.5 µg/mL (≈ 1.16 µM).

Take `CC(CCn1ncc2cc(/C=C/c3ccccc3)ccc21)(C(=O)NO)S(C)(=O)=O` (racemic) [RE3, (RS)-(E)-N-hydroxy-2-methyl-2-(methylsulfonyl)-4-(5-styryl-1H-indazol-1-yl)butanamide]: the MIC in test [1] was determined as 0.25 µg/mL (≈ 0.605 µM); against E. coli ATCC25922, 0.25 µg/mL (≈ 0.605 µM); in the test with K. pneumoniae A-651, 1 µg/mL (≈ 2.42 µM); with P. aeruginosa ATCC27853 it was 16 µg/mL (≈ 38.7 µM).

As for `C[C@@](CCn1ncc2cc(C#Cc3ccc(C4(CO)CC4)cc3)ccc21)(C(=O)NO)S(C)(=O)=O` [Example 52, (R)—N-hydroxy-4-(5-((4-(1-(hydroxymethyl)cyclopropyl)phenyl)ethynyl)-1H-indazol-1-yl)-2-methyl-2-(methylsulfonyl)butanamide], the MIC was 0.125 µg/mL (≈ 0.26 µM) in test [1], not above 0.063 µg/mL against E. coli ATCC25922, 0.25 µg/mL (≈ 0.519 µM) in the test on K. pneumoniae A-651 and 2 µg/mL (≈ 4.15 µM) against P. aeruginosa ATCC27853.

With `C[C@@](CCn1ncc2cc(C#Cc3ccc(NC(=O)CO)cc3)ccc21)(C(=O)NO)S(C)(=O)=O` [Example 28, (R)—N-hydroxy-4-(5-((4-(2-hydroxyacetamido)phenyl)ethynyl)-1H-indazol-1-yl)-2-methyl-2-(methylsulfonyl)butanamide], the MIC was determined as 0.5 µg/mL (≈ 1.03 µM) in test [1], 1 µg/mL (≈ 2.06 µM) in the test with E. coli ATCC25922, 2 µg/mL (≈ 4.13 µM) against K. pneumoniae A-651 and 4 µg/mL (≈ 8.26 µM) against P. aeruginosa ATCC27853.

For `COc1ccc(-c2ccc3c(ccn3CCC(C)(C(=O)NO)S(C)(=O)=O)c2F)c(F)c1` (racemic) [RE12, (RS)-4-(4-fluoro-5-(2-fluoro-4-methoxyphenyl)-1H-indol-1-yl)-N-hydroxy-2-methyl-2-(methylsulfonyl)butanamide], the MIC in test [1] stood at 2 µg/mL (≈ 4.42 µM); in the test with E. coli ATCC25922, 2 µg/mL (≈ 4.42 µM); against K. pneumoniae A-651 it was 4 µg/mL (≈ 8.84 µM); against P. aeruginosa ATCC27853, 2 µg/mL (≈ 4.42 µM).

(Values after patent US9624206B2, “Antibacterial 1H-indazole and 1H-indole derivatives” (priority 2013, dated 2017).)
